Measurements reported in paper PMC11211441, “Distributable, metabolic PET reporting of tuberculosis” (Nature Communications, 2024).

Assays:
[1] = [19F]FDT clearance and in vivo stability in marmosets (plasma LC-MS, 19F NMR); set-up: species or system common marmosets; details: marmosets (n = 3), LC-MS and 19F-NMR
Experimental: In order to determine [^19F]FDT metabolism in vivo, we assessed concentration vs time in two mammalian species: common marmosets and C57BL/6 mice. For marmosets weighing between 290.3–340.3 g, 20 mg of sterile-filtered FDT in PBS was injected IV (n = 3) and ~200 μL blood samples were taken from the femoral vein at 0 min, 5 min, 30 min, 60 min, 90 min and 180 min post injection. Samples were spun (4000 rcf for 10 mins at room temp) to separate red cell mass from plasma. Plasma portion was separated and stored at −80 °C for further analysis. Similarly, mice weighing from 18.7–20.5 g were injected (n = 5) with 5 mg of filter-sterilized FDT solution dissolved in PBS solution, pH 7.4. Mandibular blood samples were taken at 2 min, 15 min, 30 min and 45 min post injection. For the last sample in each mouse, the animal was bled out to get maximum sample for NMR analysis. Final urine samples were collected in 3 out of 5 mice through free catch. Blood samples were centrifuged (6500 rcf for 4 mins at room temp) to separate red cell mass from plasma, and plasma was separated and stored at −80 °C prior to analyzes.
Plasma samples from −80 °C were thawed on ice and mixed with 80% acetonitrile to precipitate plasma proteins and other biomolecules. Samples were centrifuged at 10,000 g, 4 °C for 10 min.
Figure S37. [19F]FDT Clearance and In Vivo Stability in Non-human Primates […]
A, B) 20 mg [19F]FDT was injected into marmosets (A, n=3 biological replicates, each measured in duplicate) and 5 mg FDT injected into mice (B, n=5 biological replicates, each measured in triplicate). […]
marmosets (A) and mice (B).
[19F]FDG was detected, consistent with the only low levels of metabolism seen with [18F]FDT in rabbits (see Figure S3G). C-F) We further analyzed the potential degradation of FDT into FDG by 19F NMR spectroscopy in marmoset plasma (C) sample from 5 min time point, mouse plasma (D) sample from 30 min time point and mouse urine samples from 30 min (E) and 45 min (F) time points, respectively. In all these samples only [19F]FDT was observed (d -201.2). The data points are average values from three replicates with error bars ± SD.
(1 picture or pasted object on this page, not shown here)

[2] = Detection/stability of [19F]FDT in human plasma; format: in vitro ADME; details: spiked human plasma, LC-MS
Experimental: FDT standards were prepared in human plasma (Sigma Aldrich), whereby 20 μL plasma samples were spiked with various known concentrations of [^19F]FDT i.e. 10 μM, 20 μM, 40 μM, 120 μM, 160 μM, and 300 μM in 1.5 ml Eppendorf tube and diluted with up to 50% acetonitrile solution. Samples were vortexed for 1 min and centrifuged at 13000 rpm (15871 x g) for 10 min and supernatant was analyzed directly by LC-MS using LC method 2.
Figure S35. Detection of [19F]FDT for Assessment of Stability in Human Plasma
A) Experimental set-up of the sample preparation. Commercially available human plasma samples were spiked with known concentrations of [19F] FDT, plasma proteins were then precipitated by adding up to 50% of MeCN solution and after centrifugation the samples were analysed by LC-MS. Panel A created with BioRender.com, released under a Creative Commons Attribution-NonCommercial-NoDerivs 4.0 International license. B) [19F]FDT standard sample analysed by LC-MS method 2 with the retention time of 6.5 min. C) LC-MS analysis of plasma sample spiked with known amount of FDT showing the similar retention […]
efficient detection. D) Calibration curve of plasma samples when spiked with FDT concentrations from 10 µM – 300 µM with r2 = 0.998 and E) Further calibration curve showing instrument sensitivity down to > 390 nM for detection of FDT ( r2 = 0.998 ). […]

[3] = Single and repeat iv dose toxicity study in dogs; format: in vivo; details: beagle dogs, 100 x or 1000 x expected human dose iv
Experimental: (§1) For toxicity studies, 2 g of [^19F]-FDT was synthesized and tested for quality control as described above and in Figs.39 and shipped to a contract research organization. Toxicity studies were conducted by SRI International, Biosciences Division, Menlo Park, CA, USA in rats and dogs. The experimental design is described in Tables S10, S11, respectively.
To assess the toxicity associated with [^19F]-FDT in dogs, male and female Beagle dogs (5/sex) were given a daily iv injection of [^19F]-FDT at 0.4 mg/kg/day (100 times of human dose; Group 2) for 7 consecutive days, or a single iv administration of [^19F]-FDT at 0.4 or 4 mg/kg (100 and 1000 times of human dose in Groups 3 and 4, respectively) on Day 7. A control group (5/sex; Group 1), was given 7 days of vehicle (HEPES buffer, pH 7.5, 50 mM with MgCl2 7.5 mM), at an equivalent dose volume of 0.25 ml/kg on Days 1–7. Animals were sacrificed on Day 9 (3/sex/ group; main groups) or Day 21 (2/sex/group; recovery groups). The single dose administration for Groups 3–4 were initiated on Day 7 so that clinical pathology and necropsy occurred on the same calendar day for all Groups (1–4), thus allowing for sharing of vehicle control data for analysis of clinical pathology and necropsy results between the two dose regimens.

[4] = Single and repeat iv dose toxicity study in rats; format: in vivo, Sprague Dawley rats
Experimental: as §1

## OC[C@H]1O[C@H](O[C@H]2O[C@H](CO)[C@@H](O)[C@H](O)[C@H]2F)[C@H](O)[C@@H](O)[C@@H]1O [[^19F]FDT]
[1]
  degradation in plasma / in vivo: no detectable degradation
[1]; listed as [19F]FDT
  degradation in plasma / in vivo: no degradation
[2]
  stability in human plasma: no immediate degradation or apparent sequestration
[3]
  adverse findings in any parameters measured: no adverse findings
[4]; Sprague Dawley rats, IV
  maximum tolerated dose (MTD): not reached
[4]; rats, 100 x or 1000 x expected human dose iv
  adverse findings in any parameters measured: no adverse findings
